Laboratory results: the supplement of paper PMC10627819

Columns and labels:
[1] = tested on: B. subtilis 168; assay: fitness (endpoint OD595 vs no drug) (fraction); higher = more growth
Method in brief: (§1)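 Bacterial fitness was scored as optical density at the stationary-phase transition relative to the robust mean of no-drug control wells. Scores are capped at 1. The growth data were OD595 readings every 30 min for 14 h at 37 °C, background-subtracted against the first reading, from 384-well plates inoculated at OD595 0.01 in TSB, LB Lennox or CY.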

[2] = tested on: S. aureus DSM 20231; assay: as above
Method in brief: as §1

[3] = tested on: S. aureus Newman; assay: as above
Method in brief: as §1

[4] = tested on: S. pneumoniae D39V; assay: as above
Method in brief: as §1

[5] = tested on: B. subtilis 168; assay: Bliss interaction score (quartile over a dose matrix) (fitness difference); higher = more antagonism (negative = synergy)
Method in brief: (§2)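 Fitness was defined as normalised growth: OD595 at the start of stationary phase divided by the plate's robust no-drug mean and capped at 1. Single-drug fitness was inferred from combination measurements. The Bliss score is observed fitness minus the product of the single-drug values, summarised by quartiles across technical, biological and donor/recipient replicates.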

[6] = tested on: S. aureus DSM 20231; assay: as above
Method in brief: as §2

[7] = tested on: S. aureus Newman; assay: as above
Method in brief: as §2

[8] = tested on: S. pneumoniae D39V; assay: as above
Method in brief: as §2
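Wherever Bliss interaction score (quartile over a dose matrix) is given: first quartile when negative (synergy) and third quartile when positive (antagonism).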
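Wherever fitness (endpoint OD595 vs no drug) is given: OD595 on entry to stationary phase over no-drug wells; at most 1.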

C[n+]1ccc(-c2cc[n+](C)cc2)cc1 [Paraquat] + CCN(CC)CCOC(=O)c1ccc(N)cc1 [Procaine]
fitness
Conditions	first compound 1.25 µg/mL	first compound 1.5 µg/mL	first compound 2.5 µg/mL	first compound 3 µg/mL	first compound 5 µg/mL	first compound 6 µg/mL
[1], partner 85.5 µg/mL	0.954	–	0.877	–	0.813	–
[1], partner 171 µg/mL	0.943	–	0.935	–	0.837	–
[1], partner 342 µg/mL	0.89	–	0.89	–	0.812	–
[2], partner 85.5 µg/mL	0.906	–	0.944	–	0.95	–
[2], partner 171 µg/mL	0.936	–	0.981	–	0.996	–
[2], partner 342 µg/mL	0.966	–	0.97	–	0.98	–
[3], partner 85.5 µg/mL	0.959	–	0.917	–	0.948	–
[3], partner 171 µg/mL	0.956	–	0.909	–	0.951	–
[3], partner 342 µg/mL	0.944	–	0.947	–	0.937	–
[4], partner 85.5 µg/mL	–	≥ 1	–	≥ 1	–	≥ 1
[4], partner 171 µg/mL	–	≥ 1	–	0.998	–	≥ 1
[4], partner 342 µg/mL	–	0.988	–	0.971	–	0.951

Conditions	Bliss interaction score
[5]	0.0621
[6]	0.0567
[7]	0.0516
[8]	0.0315

Cc1cc(NS(=O)(=O)c2ccc(N)cc2)no1 [Sulfamethoxazol] + CC1=C\[C@@H](O)CC(=O)Cc2nc(co2)C(=O)N2CCC=C2C(=O)O[C@H](C(C)C)[C@H](C)/C=C/C(=O)NC\C=C\1 [Virginiamycin M1]
one replicate
Conditions	fitness
[1], first compound 0.5 µg/mL, partner 0.0625 µg/mL	0.982
[1], first compound 0.5 µg/mL, partner 0.125 µg/mL	0.928
[1], first compound 0.5 µg/mL, partner 0.25 µg/mL	≥ 1
[2], first compound 1 µg/mL, partner 0.5 µg/mL	0.88
[2], first compound 1 µg/mL, partner 1 µg/mL	0.709
[2], first compound 2 µg/mL, partner 0.5 µg/mL	0.915
[2], first compound 2 µg/mL, partner 1 µg/mL	0.679
[2], first compound 4 µg/mL, partner 0.5 µg/mL	0.797
[2], first compound 4 µg/mL, partner 1 µg/mL	0.8
[3], first compound 1 µg/mL, partner 0.5 µg/mL	0.873
[3], first compound 1 µg/mL, partner 1 µg/mL	0.869
[3], first compound 1 µg/mL, partner 2 µg/mL	0.841
[3], first compound 2 µg/mL, partner 0.5 µg/mL	0.911
[3], first compound 2 µg/mL, partner 1 µg/mL	0.925
[3], first compound 2 µg/mL, partner 2 µg/mL	0.809
[3], first compound 4 µg/mL, partner 0.5 µg/mL	0.956
[3], first compound 4 µg/mL, partner 1 µg/mL	0.908
[3], first compound 4 µg/mL, partner 2 µg/mL	0.839
[3], first compound 8 µg/mL, partner 0.0625 µg/mL	0.905
[3], first compound 8 µg/mL, partner 0.125 µg/mL	0.921
[3], first compound 8 µg/mL, partner 0.25 µg/mL	0.945
[4], first compound 1 µg/mL, partner 0.15 µg/mL	0.905
[4], first compound 1 µg/mL, partner 0.3 µg/mL	0.895
[4], first compound 2 µg/mL, partner 0.15 µg/mL	0.923
[4], first compound 2 µg/mL, partner 0.3 µg/mL	0.902
[4], first compound 4 µg/mL, partner 0.15 µg/mL	0.92
[4], first compound 4 µg/mL, partner 0.3 µg/mL	0.913

fitness
Conditions	first compound 1 µg/mL	first compound 2 µg/mL	first compound 4 µg/mL
[1], partner 0.0625 µg/mL	0.887	0.905	0.901
[1], partner 0.125 µg/mL	0.878	0.876	0.901
[1], partner 0.25 µg/mL	0.983	0.919	0.993
[2], partner 0.0625 µg/mL	≥ 1	≥ 1	0.964
[2], partner 0.125 µg/mL	≥ 1	0.995	0.955
[2], partner 0.25 µg/mL	0.944	0.971	0.95
[3], partner 0.0625 µg/mL	≥ 1	≥ 1	≥ 1
[3], partner 0.125 µg/mL	≥ 1	≥ 1	≥ 1
[3], partner 0.25 µg/mL	≥ 1	≥ 1	≥ 1
[4], partner 0.5 µg/mL	0.992	0.99	0.928
[4], partner 1 µg/mL	0.988	0.986	0.917
[4], partner 2 µg/mL	0.906	0.93	0.925

Conditions	Bliss interaction score
[5]	0.0577
[6]	0.0829
[7]	0.0283
[8]	-0.05
